Reference: patent US6780398B1, “Aqueous nasal formulation” (Glaxo Smithkline Kabushiki Kaisha, priority 1999, dated 2004)

Test system: Ps. cepacia
Experiment: Challenge test of BANS against Ps. cepacia (preservative effectiveness)
Format: cell-based, Pseudomonas cepacia (now known as Burkhoderia cepacia)
Settings: phenylethylalcohol together with benzalkonium chloride in the formulation; FIG. 7
Excerpt: 4) Challenge Test of BANS Against Ps. Cepacia
Formulations corresponding to BANS and the same formulation containing only 0.02% (w/w) benzalkonium chloride as preservative (i.e. no phenylethyl alcohol) and the same formulation containing only 0.275% (v/w) phenylethylalcohol as preservative (i.e. no benzalkonium chloride) were challenged with an innoculum of Ps cepacia.

For OCCc1ccccc1 [phenylethylalcohol, Phenylethyl alcohol], the “preservative properties by killing Pseudomonas cepacia” value was “synergistic effect with benzalkonium chloride”.
